Patent US20230346853A1, “Probiotic Lyophilizate Reactivation Composition for Improving Intestinal Survivability and Adhesion of Probiotics” (COSMAX NBT, INC., priority 2021, published 2023)
Read-outs that look alike come from different tables or passages of the source.

What was measured:
Type in all cases: cell-based
[1] = system: Lactobacillus plantarum HAC03; assay: in vitro Simulated Stomach Duodenum Passage (SSDP) probiotic survivability, lyophilized HAC03; settings: for survivability compared with fresh cells, in words / Artificial Bile Juice Survivability (%) / Artificial Bile Juice log CFU/mL / Artificial Gastric Juice Survivability (%) / Artificial Gastric Juice log CFU/mL: Table 3; for Artificial Bile Juice Survivability (%) / Artificial Bile Juice log CFU/mL / Artificial Gastric Juice Survivability (%) / Artificial Gastric Juice log CFU/mL: carbohydrate mixed with HAC03 lyophilizate; for viability at 100000 µM: Lactiplantibacillus plantarum; for intestinal survivability (acid resistance and bile resistance) in words: compared to fresh bacteria / distilled water
Method: The HAC03 strain was mixed with each of the single compositions and 1 mL of distilled water for 1 min. The compositions were formulated to have a final concentration of 0.1 M when dissolved in 1 ml of distilled water. Thereafter, 9 mL of distilled water adjusted to have a pH of 2.5 was added to each mixture. The pH was readjusted back to 2.5 in case of an increased pH due to the nature of some of the single ingredients (in order to not affect the survival of the probiotics). After adjusting the pH to 2.5, the tubes were incubated at 37° C. for 1 hour to apply the low-pH gastric stress condition. […] During the gastrointestinal tract assay, the samples were taken immediately, 1 hour, and […] after the incubation (t=0, 1, and 2). The probiotic survivability of each sample after gastric stress and bile stress was calculated by counting viable colonies.

[2] = system: Lactobacillus plantarum HAC03; assay: Zeta potential of lyophilized probiotics mixed with single ingredients (screening); settings: 0.1 M ingredient, rehydrated 1 min, pH 2.5
Method: In this experimental example, Lactobacillus plantarum HAC03 (accession number: KCTC13242BP, the Korean Research Institute of Bioscience and Biotechnology) (hereinafter referred to as “HAC03”), which was described in Korean Patent Application No. 10-2017-0051574, was used as a probiotic strain.
Afterwards, 2 mL of pH 2.5 distilled water was added to each sample, the pH was re-adjusted using HCl 0.1 N, and 800 μl of the calibrated sample was loaded in DTS1080 cuvettes. The electrophoretic mobility was measured by the Zetaizer Nano ZEN 3600 (Malvern Panalytica, UK) after 2 minutes of equilibration and the Smoluchowski equation was used to convert the data into zetapotential values.
In this experiment, zeta potentials were measured at a pH of 2.5 in consideration of the highly acidic stomach environment, which is one of the initial hurdles that drastically reduce the survivability of the bacteria.

[3] = system: Lactobacillus casei Lc-11; assay: Bacterial adhesion to human enterocyte-like Caco-2/TC-7 cell line, lyophilized Lc-11; settings: 0.03 M, compared to the freeze-dried form
Source text: (§1) An examination was made to see whether the effect of reactivating lyophilized probiotics is applicable to various strains in this experimental example. In this regard, lyophilized Bifidobacterium longum Bl-05 (Dupont; hereinafter referred to as “Bl-05”), Lactobacillus plantarum Lp-115 (Dupont; hereinafter referred to as “Lp-115”), Lactobacillus casei Lc-11 (Dupont; hereinafter referred to as “Lc-11”), and 7-strain mixture (400B) (Dupont; hereinafter referred to as “MIX”) were reactivated with L-lysine and then assayed for their ability to adhere to the human enterocyte-like Caco-2/TC-7 cell line.
(§2) Lyophilizates of the three strains and the 7-strain mix were adjusted to 2×10^8 CFU/g and mixed with 0.03 M L-lysine or 0.03 M proline. The pellets were washed three time with 1× PBS and resuspended in 10 ml MEM cell culture media supplemented with 20% FBS, 2 mM glutamine, and 1% non-essential amino acids. A bacterial adhesion assay was performed according to the method of Botes et al. (Arch. Microbiol, 190 (2008), pp. 573-584) with some modifications. […] To quantify the number of bacteria attached to Caco-2/TC-7 cells, the samples were serially diluted, incubated on MRS agar plates for 48 hours (37° C.), and then counted to measure relative adhesion ratio (counts of attached bacteria in test groups to counts of attached bacteria in the control). […]

[4] = system: Bifidobacterium longum Bl-05; assay: Bacterial adhesion to human enterocyte-like Caco-2/TC-7 cell line, lyophilized Bl-05; settings: 0.03 M, compared to the freeze-dried form
Source text: as §1, §2

7-strain mixture (400B) = assay: Bacterial adhesion to human enterocyte-like Caco-2/TC-7 cell line, lyophilized 7-strain mixture; settings: 0.03 M, compared to the freeze-dried form
Source text: as §1, §2

[5] = system: Lactobacillus plantarum Lp-115; assay: Bacterial adhesion to human enterocyte-like Caco-2/TC-7 cell line, lyophilized Lp-115; settings: 0.03 M; L-lysine compared to the freeze-dried form, proline compared to L-lysine-reactivated
Source text: as §1, §2

[6] = HAC03, 1 h, pH 2.5, read-out: Stomach Survivability (%)
[7] = HAC03, 2 h, pH 6, read-out: Duodenum Survivability (%)
[8] = Table 1, 0.1 M ingredient, pH 2.5, 37° C., 1 hour
[9] = Table 1, 0.1 M ingredient, then bile salts (10% ox gall) and pH 6.0 synthetic duodenum juice, 2 hours
[10] = HAC03, Table 1, 0.1 M ingredient, pH 2.5, 37° C., 1 hour, read-out: Stomach Survivability (%)
[11] = HAC03, Table 1, 0.1 M ingredient, then bile salts (10% ox gall) and pH 6.0 synthetic duodenum juice, 2 hours, read-out: Duodenum Survivability (%)

Row | Compound | Artificial Bile Juice Survivability (%) [1] [%] | Artificial Bile Juice log CFU/mL [1] [log CFU/mL] | Artificial Gastric Juice Survivability (%) [1] [%] | Artificial Gastric Juice log CFU/mL [1] [log CFU/mL] | Stomach log CFU/mL [1, 8] [log CFU/mL] | Duodenum log CFU/mL [1, 9] [log CFU/mL] | intestinal survivability (acid resistance and bile resistance) in words ([1]; Table 1) | zeta potential of lyophilized HAC03 mixed with the ingredient (sign, FIG. 1) [2] | also measured
1 | OC[C@H]1O[C@H](O[C@H]2[C@H](O)[C@@H](O)C(O)O[C@@H]2CO)[C@H](O)[C@@H](O)[C@@H]1O (mixture of isomers) [Maltose] | 33.79 | 7.61 ± 0.13 | 85.43 | 8.02 ± 0.05 |  |  |  |  | survivability compared with fresh cells, in words [1]: survivability similar to or higher than that of fresh cells
2 | O=C[C@@H](O)[C@H](O)[C@H](O)CO [Arabinose] | 9.45 | 7.02 ± 0.35 | 17.78 | 7.12 ± 0.67 |  |  |  |  | 
3 | O=C(CO)[C@@H](O)[C@H](O)[C@H](O)CO [Fructose] | 20.73 | 7.27 ± 0.48 | 46.18 | 7.67 ± 0.37 |  |  |  |  | survivability compared with fresh cells, in words [1]: survivability similar to or higher than that of fresh cells
4 | N=C(N)NCCC[C@H](N)C(=O)O [L-Arginine, L-arginine] |  |  |  |  | 4.00 ± 0.00 | 3.73 ± 0.34 | intestinal survivability far inferior to that of distilled water | positive zeta potentials | viability at 100000 µM [1, 6]: 0.13%; viability at 100000 µM [1, 7]: 0.08%
5 | O=C1O[C@H]([C@@H](O)CO)C(O)=C1O [L-Ascorbic acid, L-ascorbic acid] |  |  |  |  | 4.08 ± 0.15 | 3.49 ± 0.00 | intestinal survivability far inferior to that of distilled water | positive zeta potentials | viability at 100000 µM [1, 6]: 0.4%; viability at 100000 µM [1, 7]: 0.1%
6 | N[C@@H](CC(=O)O)C(=O)O [L-Aspartic acid, L-aspartic acid] |  |  |  |  | 7.06 ± 0.56 | 5.80 ± 0.64 | intestinal survivability far inferior to that of distilled water | positive zeta potentials | viability at 100000 µM [1, 10]: 29.9%; viability at 100000 µM [1, 11]: 1.86%
7 | N[C@@H](Cc1c[nH]cn1)C(=O)O [L-Histidine, L-histidine] |  |  |  |  | 7.83 ± 0.11 | 7.52 ± 0.08 | increased in acid resistance and bile resistance | negative zeta potentials | viability at 100000 µM [1, 10]: 56.6%; viability at 100000 µM [1, 11]: 27.2%
8 | NCCC[C@H](N)C(=O)O [L-Ornithine, L-ornithine] |  |  |  |  | 7.75 ± 0.02 | 7.57 ± 0.03 |  | negative zeta potentials | 
9 | N[C@@H](Cc1ccc(O)cc1)C(=O)O [L-Tyrosine, L-tyrosine] |  |  |  |  | 7.98 ± 0.04 | 7.65 ± 0.01 | increased in acid resistance and bile resistance | negative zeta potentials | viability at 100000 µM [1, 10]: 73.5%; viability at 100000 µM [1, 11]: 33.9%
10 | O=C(O)CC(O)C(=O)O (stereo not shown) [Malic acid, malic acid] |  |  |  |  | <3.99 ± 0.00 | <3.49 ± 0.00 | intestinal survivability far inferior to that of distilled water | positive zeta potentials | viability at 100000 µM [1, 10]: < 0.01%; viability at 100000 µM [1, 11]: < 0.003%
11 | OC[C@@H](O)[C@@H](O)[C@H](O)[C@H](O)CO [Mannitol] | 11.77 | 6.90 ± 0.44 | 20.04 | 7.18 ± 0.32 |  |  |  |  | 
12 | C[C@H](O)[C@H](O)[C@@H](O)[C@@H](O)C=O [Rhamnose] | 18.25 | 7.53 ± 0.08 | 40.75 | 7.87 ± 0.10 |  |  |  |  | 
13 | OC[C@@H](O)[C@@H](O)[C@H](O)[C@@H](O)CO [Sorbitol] | 40.46 | 7.69 ± 0.09 | 82.06 | 8.00 ± 0.05 |  |  |  |  | survivability compared with fresh cells, in words [1]: survivability similar to or higher than that of fresh cells
14 | OC[C@H]1O[C@@](CO)(O[C@H]2O[C@H](CO)[C@@H](O)[C@H](O)[C@H]2O)[C@@H](O)[C@@H]1O [Sucrose] | 42.99 | 7.71 ± 0.13 | 80.90 | 7.99 ± 0.13 |  |  |  |  | survivability compared with fresh cells, in words [1]: survivability similar to or higher than that of fresh cells
15 | OC[C@H]1O[C@H](O[C@H]2O[C@H](CO)[C@@H](O)[C@H](O)[C@H]2O)[C@H](O)[C@@H](O)[C@@H]1O [Trehalose] | 28.10 | 7.36 ± 0.03 | 54.75 | 7.65 ± 0.05 |  |  |  |  | survivability compared with fresh cells, in words [1]: survivability similar to or higher than that of fresh cells
16 | O=C[C@H](O)[C@@H](O)[C@H](O)CO [Xylose] | 8.47 | 6.97 ± 0.49 | 27.36 | 7.50 ± 0.25 |  |  |  |  | 
17 | O=C(O)[C@@H]1CCCN1 [proline, reference compound] |  |  |  |  |  |  |  | positive zeta potentials | bacterial cell adhesion to Caco-2/TC-7 (FIGS. 2A and 2E), in words [3]: remarkably lower in adhesion; bacterial cell adhesion to Caco-2/TC-7 (FIGS. 2B and 2F), in words [4]: remarkably lower in adhesion; bacterial cell adhesion to Caco-2/TC-7 (FIGS. 2D and 2H), in words (7-strain mixture (400B)): remarkably lower in adhesion; bacterial cell adhesion to Caco-2/TC-7 (FIGS. 2C and 2G), in words [5]: remarkably lower in adhesion
